{"source": "paper PMC4490105", "about": "(Cell reports, 2015)", "key": {"[1]": {"test_system": "influenza A/PR/8/34 (PR8)", "conditions": "ref Shirey et al., 2013; cited from earlier work"}, "[2]": {"test_system": "TLR7", "experiment": "R848", "format": "cell-based, mouse", "conditions": "murine macrophages; R848 (2.85 μM); Figure 2E, F"}, "[3]": {"biological_target": "NF-kB activator 1 CC loop decoy peptide SEFIR CC loop (Homo sapiens) (UniProt O43734)", "experiment": "SPR", "conditions": "cited from earlier work"}}, "data": [{"compound": "CCCCCC/C=C\\CCCCCCCCCC(=O)N[C@H]1[C@H](OC[C@H]2O[C@H](OP(=O)(O)O)[C@H](NC(=O)CC(=O)CCCCCCCCCCC)[C@@H](OCCCCCCCCCC)[C@@H]2O)O[C@H](COC)[C@@H](OP(=O)(O)O)[C@@H]1OCC[C@@H](CCCCCCC)OC", "note": "[Eritoran]", "values": [{"measurement": "Protection from PR8 infection, TLR2−/− mice", "setting": "[1]", "result": "could not be protected"}, {"measurement": "Protection from PR8 infection, mice", "setting": "[1]", "result": "protected mice from PR8 infection"}]}, {"compound": "CCOCc1nc2c(N)nc3ccccc3c2n1CC(C)(C)O", "note": "[R848]", "values": [{"measurement": "Induction of TNF-α and IL-6", "setting": "[2]", "result": "induced robust production"}]}, {"compound": "IL-17RA (from UniProt Q96F46)", "values": [{"measurement": "Kd", "setting": "[3]", "result": 117, "unit": "µM"}]}]}
